Experimental data: US9061060B2, “Deuterated benzylbenzene derivatives and methods of use” (Theracos Inc., priority 2008, dated 2015)

Assays:
[1] = Pharmacokinetic parameters in SD rats; assay type: in vivo, Sprague-Dawley rats; conditions: single oral 3 mg/kg in 30% PEG400, plasma; for AUC(0-t): read-out: AUC0-t (mean ± SD)
Description: The pharmacokinetic study of each test compound was conducted in 4 Sprague-Dawley rats following a single oral administration of 3 mg/kg of the compound. The dose was prepared by dissolving test article in appropriate volume of 30% PEG400. The plasma samples were collected from the orbital plexus at 0.083, 0.25, 0.50, 1.0, 2.0, 4.0, 6.0, 8.0, 12 and 24 hours post dose, and the plasma concentrations were determined by a developed LC-MS/MS method.

CYP1A2 = biological target: T1, CYP1A2 (Homo sapiens, UniProt P05177); assay: P450-Glo CYP screening kit, CYP1A2 inhibition; assay type: in vitro ADME; conditions: luminescence, read-out: IC50 1A2
T1 construct: purchased Promega
T1 sequence (P05177 1-516): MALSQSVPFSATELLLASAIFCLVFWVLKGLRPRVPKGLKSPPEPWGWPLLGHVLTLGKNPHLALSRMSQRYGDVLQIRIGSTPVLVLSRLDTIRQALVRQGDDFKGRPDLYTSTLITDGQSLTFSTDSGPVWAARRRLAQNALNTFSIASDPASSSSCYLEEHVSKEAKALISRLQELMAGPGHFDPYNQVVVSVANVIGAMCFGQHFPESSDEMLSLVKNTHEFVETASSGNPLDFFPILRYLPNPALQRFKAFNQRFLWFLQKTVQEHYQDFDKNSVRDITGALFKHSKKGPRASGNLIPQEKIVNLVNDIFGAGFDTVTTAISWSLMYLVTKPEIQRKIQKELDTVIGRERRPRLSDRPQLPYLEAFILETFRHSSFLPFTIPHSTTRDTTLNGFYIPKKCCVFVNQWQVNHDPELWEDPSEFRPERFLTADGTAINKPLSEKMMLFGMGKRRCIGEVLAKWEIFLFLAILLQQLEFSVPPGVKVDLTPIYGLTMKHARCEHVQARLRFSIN
From the text: (§1) P450-Glo™ CYP Screening Kits for CYP1A2, CYP3A4 and CYP2C19 were purchased from Promega. […] Luminescence was quantified using a Victor 3 spectrophotometer (PerkinElmer).

CYP3A4 = biological target: T2, CYP3A4 (Homo sapiens, UniProt P08684); assay: P450-Glo CYP screening kit, CYP3A4 inhibition; assay type: in vitro ADME; conditions: luminescence, read-out: IC50 3A4
T2 construct: purchased Promega
From the text: as §1

CYP2C19 = biological target: T3, CYP2C19 (Homo sapiens, UniProt P33261); assay: P450-Glo CYP screening kit, CYP2C19 inhibition; assay type: in vitro ADME; conditions: luminescence, read-out: IC50 2C19
T3 construct: purchased Promega
From the text: as §1

SD rats = assay: Urinary glucose excretion in SD rats; assay type: in vivo; conditions: 1 mg/kg oral; for Urinary Glucose Excretion in Rats, 0-4 h (mean ± SD) / Urinary Glucose Excretion in Rats, 0-24 h (mean ± SD) / Urinary Glucose Excretion in Rats, 4-24 h (mean ± SD): glucose 2 g/kg 1 h post dose
Description: Each test compound was dissolved in 30% PEG400 and administered orally to overnight-fasted SD rats by gavage at the dose level of 1 mg/kg. Control rats were given 30% PEG400 only. One hour post dosing, glucose solution (2 g/kg, 10 mL/kg) was administered by oral gavage. Urine was collected within metabolic cages from 0 to 4 hours, and 4 to 24 hours post-dosing for urine volume and glucose measurement. Food was removed 16 hours before dosing and then provided 4 hours after dosing. Water was supplied ad libitum. The concentration of urinary glucose was determined at 4 hours and 24 hours post-dose using a biochemistry analyzer. Results were recorded for the periods 0-4 hours, 4-24 hours and 0-24 hours, and expressed as a percentage of the urinary glucose excretion (UGE) seen with reference compound A, which was run as a positive control in all experiments.

beagle dogs = assay: Urinary glucose excretion in beagle dogs; assay type: in vivo; conditions: separate experiment (Table 4A)
Description: Each test compound was dissolved in 10% PEG400 and administered orally to overnight-fasted beagle dogs by gavage at the dose level of 0.03 mg/kg. Control dogs were given 10% PEG400 only. One hour post dosing, glucose solution (2 g/kg, 5 mL/kg) was administered by oral gavage. Urine was collected within metabolic cages from 0 to 8 hours, and 8 to 24 hours post-dosing for urine volume and glucose measurement. Food was removed 16 hours before dosing and then provided 3 hours after dosing. Water was supplied ad libitum. The concentration of urinary glucose was determined at 8 hours and 24 hours post-dose using a biochemistry analyzer.

[2] = Pharmacokinetic parameters in Beagle dogs; assay type: in vivo; conditions: dog, single oral 1 mg/kg in 30% PEG400, plasma
Description: The pharmacokinetic study of each test compound was conducted in three Beagle dogs following a single oral administration of 1 mg/kg of the compound. The dose was prepared by dissolving test article in appropriate volume of 30% PEG400. The plasma samples were collected from the cephalic vein pre-dose and at 0.25, 0.50, 1.0, 2.0, 4.0, 6.0, 8.0, 12 and 24 hours post dose, and the plasma concentrations were determined by a developed LC-MS/MS method.

T2 sequence (P08684 whole entry): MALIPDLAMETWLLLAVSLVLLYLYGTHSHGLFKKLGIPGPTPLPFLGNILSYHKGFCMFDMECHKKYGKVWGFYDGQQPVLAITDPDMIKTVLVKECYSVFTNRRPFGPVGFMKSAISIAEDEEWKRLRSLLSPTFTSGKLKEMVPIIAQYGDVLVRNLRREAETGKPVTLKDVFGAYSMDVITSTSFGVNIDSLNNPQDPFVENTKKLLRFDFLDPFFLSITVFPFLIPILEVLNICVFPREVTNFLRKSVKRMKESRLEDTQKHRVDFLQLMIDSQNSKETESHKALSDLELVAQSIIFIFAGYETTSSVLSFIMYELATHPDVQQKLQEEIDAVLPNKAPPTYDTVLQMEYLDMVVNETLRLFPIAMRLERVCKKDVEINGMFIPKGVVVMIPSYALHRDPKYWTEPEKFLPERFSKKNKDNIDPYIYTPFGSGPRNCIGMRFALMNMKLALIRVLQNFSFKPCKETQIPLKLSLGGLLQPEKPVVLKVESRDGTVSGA
T3 sequence (P33261 whole entry): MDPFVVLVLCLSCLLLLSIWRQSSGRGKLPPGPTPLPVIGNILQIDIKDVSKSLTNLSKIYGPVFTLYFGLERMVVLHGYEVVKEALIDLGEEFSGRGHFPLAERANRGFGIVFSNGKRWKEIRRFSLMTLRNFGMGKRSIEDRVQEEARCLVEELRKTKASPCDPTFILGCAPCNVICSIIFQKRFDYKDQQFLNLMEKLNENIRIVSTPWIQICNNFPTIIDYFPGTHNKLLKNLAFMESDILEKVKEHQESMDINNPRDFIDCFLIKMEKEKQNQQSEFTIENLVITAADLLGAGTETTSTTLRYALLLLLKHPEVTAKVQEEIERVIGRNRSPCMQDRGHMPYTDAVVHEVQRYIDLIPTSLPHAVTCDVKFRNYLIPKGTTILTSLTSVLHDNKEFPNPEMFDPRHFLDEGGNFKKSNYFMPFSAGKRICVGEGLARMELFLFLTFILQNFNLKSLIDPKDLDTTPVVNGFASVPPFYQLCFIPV

CL/F ([1]; Sprague-Dawley, rat)	AUC(0-t) ([1]; Sprague-Dawley, rat)	Cmax (mean ± SD) [1]	t1/2 (mean ± SD) [1]	tmax (mean ± SD) [1]	SMILES	Urinary Glucose Excretion in Rats, 0-4 h, % relative to Ref A (SD rats)	Urinary Glucose Excretion in Rats, 0-24 h, % relative to Ref A (SD rats)	Urinary Glucose Excretion in Rats, 4-24 h, % relative to Ref A (SD rats)	Urinary Glucose Excretion in Rats, 0-4 h (mean ± SD) (SD rats)	Urinary Glucose Excretion in Rats, 0-24 h (mean ± SD) (SD rats)	Urinary Glucose Excretion in Rats, 4-24 h (mean ± SD) (SD rats)	also measured
2.4 mL/min/kg	20300 ± 1610 ng·h/mL	2923 ± 393 ng/mL	4.56 ± 0.64 h	0.88 ± 0.75 h	[2H]C([2H])(C)Oc1ccc(Cc2cc([C@@H]3O[C@H](CO)[C@@H](O)[C@H](O)[C@H]3O)ccc2Cl)cc1 [24a, (2S,3R,4R,5S,6R)-2-(4-chloro-3-(4-(ethoxy-1,1′-d)benzyl)phenyl)-6-(hydroxymethyl)tetrahydro-2H-pyran-3,4,5-triol]							
7.18 mL/min/kg	6680 ± 350 ng·h/mL	1494 ± 428 ng/mL	6.34 ± 2.79 h	1.19 ± 0.94 h	[2H]C([2H])([2H])Oc1ccc(Cc2cc([C@@H]3O[C@H](CO)[C@@H](O)[C@H](O)[C@H]3O)ccc2Cl)cc1 [24d, (2S,3R,4R,5S,6R)-2-(4-chloro-3-(4-(methoxy-d3)benzyl)phenyl)-6-(hydroxymethyl)tetrahydro-2H-pyran-3,4,5-triol]	131%	92%	89%	251 ± 44 mg	2234 ± 199 mg	1983 ± 167 mg	IC50 (CYP1A2): > 1000 µM; IC50 (CYP3A4): ~1000 µM; IC50 (CYP2C19): 120 µM

Second part, the compound before the results:

SMILES	CL/F ([1]; Sprague-Dawley, rat)	AUC(0-t) ([1]; Sprague-Dawley, rat)	Cmax (mean ± SD) [1]	t1/2 (mean ± SD) [1]	tmax (mean ± SD) [1]	Urinary Glucose Excretion in Rats, 0-4 h, % relative to Ref A (SD rats)	Urinary Glucose Excretion in Rats, 0-24 h, % relative to Ref A (SD rats)	Urinary Glucose Excretion in Rats, 4-24 h, % relative to Ref A (SD rats)	Urinary Glucose Excretion in Rats, 0-4 h (mean ± SD) (SD rats)	Urinary Glucose Excretion in Rats, 0-24 h (mean ± SD) (SD rats)	Urinary Glucose Excretion in Rats, 4-24 h (mean ± SD) (SD rats)	also measured
[2H]C([2H])([2H])Oc1ccc(Cc2cc([C@]3([2H])O[C@H](CO)[C@@H](O)[C@H](O)[C@H]3O)ccc2Cl)cc1 [24e, (2S,3R,4R,5S,6R)-2-(4-chloro-3-(4-(methoxy-d3)benzyl)phenyl)-6-(hydroxymethyl)tetrahydro-2H-pyran-2-d-3,4,5-triol]						162%	101%	97%	236 ± 48 mg	2525 ± 266 mg	2288 ± 287 mg	
OC[C@H]1O[C@@H](c2ccc(Cl)c(Cc3ccc(C4CC4)cc3)c2)[C@H](O)[C@@H](O)[C@@H]1O [Ref C, (2S,3R,4R,5S,6R)-2-(4-chloro-3-(4-cyclopropylbenzyl)phenyl)-6-(hydroxymethyl)tetrahydro-2H-pyran-3,4,5-triol, reference compound]	5.2 mL/min/kg	9770 ± 2180 ng·h/mL										Cmax ([1]; Sprague-Dawley, rat): 1050 ± 230 ng/mL; Tmax ([1]; Sprague-Dawley, rat): 3 ± 1.15 h; half-life ([1]; Sprague-Dawley, rat, read-out: t1/2 (mean ± SD) (converted)): 4.28 ± 0.8 h
OC[C@H]1O[C@@H](c2ccc(Cl)c(Cc3ccc(OCCOCC(F)F)cc3)c2)[C@H](O)[C@@H](O)[C@@H]1O [Ref F, (2S,3R,4R,5S,6R)-2-(4-chloro-3-(4-(2-(2,2-difluoroethoxy)ethoxy)benzyl)phenyl)-6-(hydroxymethyl)tetrahydro-2H-pyran-3,4,5-triol, reference compound]												Urinary Glucose Excretion in Dogs, 0-8 h (mean ± SD) (beagle dogs; 0-8 h): 1927 ± 307 mg; Urinary Glucose Excretion in Dogs, 0-24 h (mean ± SD) (beagle dogs; 0-24 h): 13438 ± 5237 mg; Urinary Glucose Excretion in Dogs, 8-24 h (mean ± SD) (beagle dogs; 8-24 h): 11511 ± 5327 mg; AUC(0-t) ([2]; read-out: AUC0-t (mean ± SD)): 4920 ± 484 ng·h/mL; CL/F ([2]; read-out: CL/F (mean ± SD) (converted)): 3.17 mL/min/kg; Cmax ([2]; read-out: Cmax (mean ± SD)): 889 ± 65.4 ng/mL; Tmax ([2]; read-out: tmax (mean ± SD)): 0.4 ± 0.1 h
